# Laboratory results taken from patent publication US10316131B2, “Hyperbranched polymer modified with isocyanate linker and mix of short and long chain alkyl polyether” (priority 2014, dated 2019).
# Key:
# [1] = Solubilization measurements with a highthroughput screening robot; type: physicochemical
# Experimental: Solubilization measurements were carried out with a highthroughput screening robot. […] After the addition of stirring bars and 24 hours incubation time the samples were filtrated through polypropylene filters in order to separate dissolved active and its solid form. The amount of solubilized active was determined by UV/VIS spectroscopy.
# [2] = tested on: Puccinia Recondata/Tritici; assay: Greenhouse test of pesticidal activity on infected wheat, suspension concentrates SC1 and SC2; type: in vivo, Puccinia Recondata/Tritici on wheat variety Monopol
# Experimental: An aqueous suspension concentrate (“SC1”) was prepared as in Application Example 1. The pesticidal activity was tested in greenhouse tests on wheat variety Monopol, which was infected with the fungi Puccinia Recondata/Tritici. The plants were treated with SC1 three days after the inoculation at a use rate of […] (200 l water/ha). The use rate of the polymers of the invention was kept constant at 250 g per ha.
# The above greenhouse tests were also made with a suspension concenctrate “SC2” of the triazole fungicide 2-[4-(4-chlorophenoxy)-2-(trifluoromethyl)phenyl]-1-(1H-1,2,4-triazol-1-yl)propan-2-ol (“triazole fungicide”) (100 g/ha) instead of fluxapyroxad.
# [3] = 10 mg solid active in 3 wt % polymer solution in CIPAC water D, 24 hours, listed as of the active = no polymer
structure (smiles),measurement,setting,value
Cn1cc(C(=O)Nc2ccccc2-c2cc(F)c(F)c(F)c2)c(C(F)F)n1 [fluxapyroxad],Solubility of fluxapyroxad,[1]; [3],10 pmm
same,"% infected leaf area, use rate of active 33%","[2]; fluxapyroxad SC1, use rate 8.3 pesticide per ha, polymer 250 g per ha, treated three days after inoculation, 7 days after inoculation",80%
same,"% infected leaf area, use rate of active 100%","[2]; fluxapyroxad SC1, use rate 25 pesticide per ha, polymer 250 g per ha, treated three days after inoculation, 7 days after inoculation",79%
N#Cc1nn(-c2c(Cl)cc(C(F)(F)F)cc2Cl)c(N)c1[S+]([O-])C(F)(F)F (centres unmarked) [fipronil],Solubility of fipronil,[1],12 pmm
NC(=O)N1c2ccccc2C=Cc2ccccc21 [carbamazepine],Solubility of carbamazepine,[1]; [3],181 pmm
"CC(O)(Cn1cncn1)c1ccc(Oc2ccc(Cl)cc2)cc1C(F)(F)F (centres unmarked) [triazole fungicide, 2-[4-(4-chlorophenoxy)-2-(trifluoromethyl)phenyl]-1-(1H-1,2,4-triazol-1-yl)propan-2-ol]",Solubility of the triazole fungicide,[1]; [3],15 pmm
same,"% infected leaf area, use rate of active 100%",[2]; triazole fungicide SC2 (100 g/ha) instead of fluxapyroxad,83%
same,"% infected leaf area, use rate of active 33%","[2]; triazole fungicide SC2 instead of fluxapyroxad, 33% use rate",91%
